Tested on: human CLL cells and human T cells in NSG spleens
Experiment: Human CLL xenograft in NSG mice, oral LDC526
Type: in vivo, mouse
Details: for mean weight loss: 75 mg/kg group
Description: We and others previously established human CLL xenograft models using NOD/SCID and NSG mice, respectively. We chose to use the NSG model for LDC526 experiments since NSG CLL and concomitant T cell engraftment levels are expected to be higher than in the NOD/SCID model. We intravenously injected PBMCs from n=6 CLL patients into n=57 NSG mice and commenced LDC treatment with a 14 day latency according to the experimental set-up outlined in Figure 3A. To study the effect of doses and treatment duration we chose to administer 50 and 75 mg/kg for three days (NSG transplanted with cells originating from n=3 patients) and for five days (NSG transplanted with cells originating from n=3 additional patients). On experimental days 17 and 21 NSG spleens were harvested and the content of human CLL and T cells was determined by cell counting and flow cytometry (Figure 3B). […] Compared to carrier control treatment, numbers of human CLL cells decreased after 3 and 5 days of LDC526 treatment, respectively. However, statistical significance regarding the reduction of human CLL cell numbers was only achieved at the LDC526 75 mg/kg dose level (Figure 3C). […] In order to determine whether there was differential in vivo LDC526 sensitivity of T cell subsets we performed additional staining for human CD4+ and CD8+ T cells present in the spleens of xenografted NSG mice (Figure 4A). […] In contrast, in mice transplanted with cells of n=2 other CLL patients and receiving LDC526 treatment for 5 days we observed a rising CD4/CD8 ratio with increasing LDC526 doses (Figure 4B). This could mean that CD8+ cytotoxic T cells are more susceptible to longer LDC526 exposure (5 versus 3 days) than CD4+ T cells. However, this differential skew within the T cell compartment could also reflect the heterogeneity of T cells derived from different CLL patients. […] A mean weight loss of 1.8% was detectable in mice of the LDC526 75 mg/kg group (day 16). […] Remarkably, human T cell numbers were already decreased at a lower dose level than human CLL cells.
All mice were bred and housed at the University Hospital Essen animal care facility. TCL1 mice were back-crossed more than 6 generations into the C57BL/6 background and were genotyped as previously described. Age-matched TCL1 wild-type littermates served as controls. Peripheral blood counts were determined with the VetABC analyzer (scil, Viernheim, Germany). Blood smears were Wright-Giemsa stained. For the human CLL xenograft experiments eight to 14-week-old NOD.Cg-Prkdc^scid Il2rg^tm1Wjl/SzJ (NOD/scid/γc^null; NSG) mice were sublethally irradiated (3.25 Gy) 24 hours before transplantation. Freshly isolated 1.0 x 10^8 PBMC suspended in 0.2 ml of RPMI were intravenously transplanted as previously described. For oral administration, LDC526 was diluted in polyethelene glycol (PEG Mn 400, Sigma-Aldrich) and administerd by gavage. Animal experiments were performed in accordance with institutional guidelines approved by the Animal Care Committee of the University Hospital Essen.
LDC526 [(3-((4-(4-fluoro-2-methoxyphenyl)-1,3,5-triazin-2-yl)amino)phenyl)methane-sulfonamide, molecular weight 389,41 g/mol, Figure 1A] was provided as powder (LDC526 synthesis, supplementary methods). For oral gavage administration LDC526 was diluted in polyethelene glycol (PEG Mn 400, Sigma-Aldrich, Munich, Germany) followed by sonication for 3 x 5 minutes with intermediate mixing.
Apoptosis and cell death were determined by using Annexin V (BD Biosciences, Heidelberg, Germany) and 4′,6-Diamidin-2-phenylindol (DAPI, Sigma-Aldrich) staining. Erythrocytes of murine peripheral blood samples were lysed with NH4Cl hypotonic solution. Single cell suspensions of murine spleens were prepared as previously described. Murine cells were stained with antibodies directed against murine CD3 (clone 145-2C11), CD5 (53-7.3) and CD19 (1D3), respectively. […]

[1] = 75 mg/kg, day 21, representative plot

In the case of `COc1cc(F)ccc1-c1ncnc(Nc2cccc(CS(N)(=O)=O)c2)n1` [LDC526, (3-((4-(4-fluoro-2-methoxyphenyl)-1,3,5-triazin-2-yl)amino)phenyl)methane-sulfonamide], the “reduction of human CLL cells in NSG spleens compared to carrier control” value (75 mg/kg for 5 days) is reported as 77%, the mean weight loss (day 16) is reported as 1.8% and the mean weight loss (day 21) is reported as 3.6%. The “flow cytometry gate huCD4, NSG spleen T cells” value [1] was 81.2, the “flow cytometry gate huCD8, NSG spleen T cells” value [1] was 14.7 and the “flow cytometry gate huCD45+ huCD3, NSG spleen” value [1] was 38.7. For the same molecule, the “numbers of splenic human T cells” value (50 and 75 mg/kg, 3 or 5 days) was “significantly reduced at both LDC526 doses”.

From paper PMC5995184, “Potent anti-leukemic activity of a specific cyclin-dependent kinase 9 inhibitor in mouse models of chronic lymphocytic leukemia” (Oncotarget, 2018)
